Laboratory results as given in PubChem BioAssay (NCI).
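Five concentrations, 48 hours, 96-well plates. The concentration for 50% growth inhibition is given as GI50. Definition used: TGI = concentration required for complete inhibition of growth.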

Tests used:
Experiment in all cases: inhibition of tumour cell growth, NCI panel, 48 h
[1] = tested on: HCC-2998 colon
[2] = tested on: MOLT-4 leukemia
[3] = tested on: HOP-62 NSCLC
[4] = tested on: KM12 colon
[5] = tested on: CAKI-1 renal
[6] = tested on: MDA-MB-231 breast
[7] = tested on: SK-MEL-2 melanoma
[8] = tested on: 786-0 renal

Row | SMILES | TGI [1] | TGI [2] | TGI [3] | TGI [4] | TGI [5] | TGI [6] | TGI [7] | TGI [8] | GI50 [1] | GI50 [2] | GI50 [3] | GI50 [4] | GI50 [5] | GI50 [6] | GI50 [7] | GI50 [8]
1 | COC(=O)C1C(=O)C(C(=O)OC)C2CCC1N2C (stereo unspecified) | > 100 µM | > 57.9 µM | > 100 µM | > 100 µM | > 100 µM | > 100 µM | 63.5 µM | > 100 µM |  |  |  |  |  |  |  | 
2 | CCN1C[C@@H](C)n2c(c(O)c3c(=O)n(Cc4ccc(F)c(Cl)c4)nc(C(=O)NC)c32)C1=O | 6.08 µM | > 100 µM | 24.7 µM | 7.71 µM | 16.6 µM | 7.36 µM | 4.53 µM | 8.4 µM | 2.54 µM | 4.18 µM | 3.16 µM | 2.73 µM | 3.03 µM | 2.64 µM | 2.11 µM | 2.91 µM
3 | O=C(CCl)N1CCN(c2ccccc2)CC1 | 32.2 µM | > 100 µM | 36.3 µM | 37.2 µM | 29.9 µM |  |  | 29.3 µM |  |  |  |  |  |  |  | 
4 | CCc1nc(N)nc(N)c1-c1ccc(N2CCNCC2)c([N+](=O)[O-])c1 | 58.8 µM | > 100 µM | > 91.8 µM | > 100 µM | > 100 µM | 69.2 µM | > 90.5 µM | > 74.3 µM |  |  |  |  |  |  |  | 
5 | Cc1cc(NS(=O)(=O)c2ccc(-c3cnc(C4CC4)o3)cc2)ccc1Cl | 11.7 µM | 46.8 µM | 17 µM | 13.4 µM | 15.5 µM | 12.2 µM | 20.3 µM | 17.8 µM | 1.23 µM | 0.525 µM | 0.313 µM | 0.187 µM | 0.0908 µM | 0.794 µM | 0.445 µM | 0.605 µM
6 | CCN(CC)CCOc1ccc(/C(=C(\C)Cc2ccc(OC)cc2)c2ccc(O)cc2)cc1 | 3.46 µM | 3.52 µM | 3.81 µM | 3.76 µM | 3.21 µM | 3.26 µM | 3.71 µM | 3 µM | 1.91 µM | 1.5 µM | 1.89 µM | 1.8 µM | 1.65 µM | 1.71 µM | 1.94 µM | 1.59 µM
7 | COc1cccc(N2C(=N)/C(=C3\Nc4ccccc4S3)CC2=O)c1 |  | > 100 µM | 28.1 µM | > 100 µM | > 100 µM | > 100 µM | > 100 µM | > 100 µM |  | 2.4 µM | 2.73 µM | 7.48 µM | 8.21 µM | 51.1 µM | 48.4 µM | 4.91 µM
8 | Nc1ncc(-c2ccc3ncnc(N4CCc5cc(F)c(Cl)cc54)c3c2)cc1C=O | > 100 µM | 6.56 µM | > 100 µM | > 100 µM | > 26.2 µM | > 100 µM | 6.05 µM | > 100 µM | 2.29 µM | 1.01 µM | 0.896 µM | 2.86 µM | 0.845 µM | 1.8 µM | 1.59 µM | 0.658 µM
9 | CCN1CCCCCCCCCC(=N/O)/C(=N\O)C1 |  | > 100 µM | > 100 µM | > 100 µM | > 100 µM | > 100 µM |  | > 100 µM |  |  |  |  |  |  |  | 
